{"source": "patent US20160122821A1", "about": "“GENETIC MARKERS OF ANTIPSYCHOTIC RESPONSE” (SUREGENE, LLC, priority 2013, published 2016)", "key": {"[1]": {"test_system": "Caucasian patients with schizophrenia (CATIE)", "assay": "Genetic association (linear regression, additive model) of SNP alleles with MMRM-modelled change in PANSS Total Score under antipsychotic treatment, CATIE trial", "format": "in vivo, human", "conditions": "rs1315115, located in an intron of NPAS3", "procedure": "For the CATIE study, individual cases were diagnosed as having SZ based on DSM-III/IV criteria. Treatment response for all patients was assessed using the Positive and Negative Syndrome Scale (PANSS) (Kay et al., 1987; Kay et al., 1989; Leucht et al., 2005). […] To avoid possible bias in post hoc selection of a treatment response variable, the inventors used the mixed model repeated measures (MMRM) approach developed by van den Oord and coworkers (van den Oord et al., 2009). […] The design of the CATIE study, including details of consent for genetic analyses, has been described in detail by others (Lieberman et al., 2005; Stroup et al., 2003; Sullivan et al., 2008). Only retrospective genetic analyses, judged to be exempt from human studies requirements by an IRB, were conducted in the current study. Consented DNA samples were obtained from the Rutgers University Cell and DNA Repository in collaboration with […]. […] All of these patients self-reported as having exclusively European ancestry. […] Genotyping was performed on a fee for service basis according to Illumina's standard operating procedures. Raw intensity files were processed using Illumina® BeadStudio version 1.7.4 software. […] Only two of these had been previously genotyped in the CATIE sample. […] To allow comparison to previously published PGx findings for CATIE and to avoid possible bias in post-hoc selection of a treatment response variable, the inventors used the mixed model repeated measures (MMRM) approach developed by Van den Oord and coworkers (van den Oord et al., 2009; […] et al., 2011). Briefly, this method models random effects by introducing random slopes for treatment effects, allowing treatment effects to be different across subjects. The MMRM approach serves to increase the statistical power to detect genetic associations by increasing the precision in measuring change in PANSS Total Score (PANSS-T) by accounting for variance due to baseline PANSS-T, and treatment, as well as smoothing out the random fluctuations in PANSS-T between visits due to various uncontrolled variables. […] Bozeman, Mont.). Quantile-Quantile (QQ) plots were prepared using the R statistical package version 2.14.1. For comparison purposes, original CATIE-provided SNP genotypes in specific genes were evaluated using the same genetic analysis. Haplotype association integrating newly generated and original genotypes for specific regions was carried out in SVS using haplotype blocks predefined by Haploview software. […] For each of the SNPs listed the reference SNP (rs) number is provided, which provides the known sequence context for the given SNP (see, e.g., National Center for Biotechnology Information (NCBI) SNP database available on the world wide web at ncbi.nlm.nih.gov/snp)."}, "[2]": {"test_system": "Caucasian patients with schizophrenia (CATIE)", "conditions": "SNPs in NPAS3; Lavedan et al., 2009; cited from earlier work"}}, "data": [{"molecule": "Cc1nc2n(c(=O)c1CCN1CCC(c3noc4cc(F)ccc34)CC1)CCCC2", "note": "[Risperidone, risperidone]", "values": [{"measurement": "association of SNP with response", "setting": "[1]", "value": "associated with response"}]}, {"molecule": "COc1cc(C(C)=O)ccc1OCCCN1CCC(c2noc3cc(F)ccc23)CC1", "note": "[iloperidone]", "values": [{"measurement": "association of SNPs with response", "setting": "[2]", "value": "association of SNPs in NPAS3 with response"}]}]}
